Laboratory results reported in patent US7566737B2 (Genfit, priority 2002, dated 2009).

What was measured:
[1] = tested on: LDL; test: Protection against LDL oxidation by copper (conjugated diene formation); assay type: biochemical
Procedure: LDL oxidation is an important alteration and plays a predominant role in the establishment and development of atherosclerosis (Jurgens G et al., 1987). […] Unless otherwise indicated, the reagents were from Sigma (St Quentin, France). LDL were prepared according to the method described by (Havel R J et al., 1955). The solutions of test compounds were prepared at 10^−2 M concentration in bicarbonate buffer (pH 9) and diluted in PBS to obtain final concentrations ranging from 0.1 to 100 μM for a total ethanol concentration of […]. Prior to oxidation, EDTA was removed from the LDL preparation by dialysis. Oxidation then took place at 30° C. by addition of 100 μl of 16.6 μM CuSO4 solution to 160 μL of LDL (125 μg protein/ml) and 20 μl of a test compound solution. The formation of dienes, the species under observation, was followed by measuring optical density at 234 nm in the samples treated with the compounds but in the presence or absence of copper. Optical density at 234 nm was measured every 10 minutes for 8 hours in a thermostated spectrophotometer (Tecan Ultra 380). The compounds were considered to have antioxidant activity when they induced a longer lag phase and reduced the rate of oxidation and the amount of dienes formed in comparison with the control sample.

[2] = molecular target: T1, human PPARα (Homo sapiens, UniProt Q07869); test: PPARα/Gal4 transactivation system; assay type: cell-based
T1 construct: expressed in transfected cells; host or cells: RK13 or COS-7
T1 sequence (Q07869 239-466 limits assumed): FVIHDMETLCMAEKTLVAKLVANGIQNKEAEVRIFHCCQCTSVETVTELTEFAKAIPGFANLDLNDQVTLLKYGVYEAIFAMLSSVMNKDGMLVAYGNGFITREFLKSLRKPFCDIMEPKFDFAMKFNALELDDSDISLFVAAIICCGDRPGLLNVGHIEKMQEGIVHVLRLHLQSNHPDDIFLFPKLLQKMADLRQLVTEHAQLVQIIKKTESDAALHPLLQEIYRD
Method in brief: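 Gal4-DBD fused to human PPAR ligand-binding (DEF) domain with Gal4-responsive luciferase reporter, in transfected RK13 or COS-7 cells. RK13: compounds at 10, 30, 100 μM or 1, 10, 100 μM for 24 h, dual-luciferase read, normalised to protein; COS-7: 24 h activation at 37° C in serum-free medium, luciferase read-out.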

[3] = tested on: Human normal primary fibroblasts; test: Antioxidant properties on cell cultures (carboxy-H2DCFDA fluorescence, AAPH stress), fibroblasts; assay type: cell-based; conditions: 25 μM for 24 h, AAPH 750 μM
Method in brief: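 Cells were pretreated 24 h with compound at 25 μM, loaded 30 min at 37 °C with 25 μM carboxy-H2DCFDA, then stressed 30 min with 750 μM AAPH in phenol-red- and serum-free medium. ROS read as fluorescence ([…]); activity expressed as reduction in fluorescence signal.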

SMILES	lag phase of conjugated diene formation ([1]; 10^−4M, FIG. 1-7, copper alone 82 minutes) [min]	induction factor (luminescent signal relative to untreated cells) ([2]; 1 μM)	induction factor (luminescent signal relative to untreated cells) ([2]; 10 μM)	antioxidant properties on cell cultures (in words) [3]	lag phase of conjugated diene formation ([1]; 10^−4M, FIG. 1-12, copper alone 120 minutes) [min]	rate of conjugated diene formation ([1]; 10^−4M, FIG. 1-13, copper alone 1.8)	maximum amount of conjugated dienes formed ([1]; FIG. 1-14, copper alone 372)	maximum induction factor ([2]; at the 10 or 1 μm concentrations)
CSc1ccc(C(=O)/C=C/c2cc(C)c(OC(C)(C)C(=O)O)c(C)c2)cc1 [Compound 29, 1-[4-methylthiophenyl]-3-[3,5-dimethyl-4-carboxydimethylmethyloxyphenyl]prop-2-en-1-one]	135	28	25	antioxidant properties				
Cc1cc(/C=C/C(=O)c2ccc(Br)cc2)cc(C)c1OC(C)(C)C(=O)O [Compound 41, 1-[4-bromophenyl]-3-[3,5-dimethyl-4-carboxydimethylmethyloxyphenyl]prop-2-en-1-one]				antioxidant properties	411	0.54 nmol/min/mg of LDL	71 nmol per mg of LDL	34
